Data published in patent US20060160883A1, “Regulation of immune system action in mammals through use of a multi-tiered model of immune system function” (priority 2005, published 2006).

System: osteosarcoma (bone cancer) and chondrosarcoma (cartilage cancer)
Test: Treatment of one dog (Maggie, 12 year old Border Collie) with bone and cartilage cancer after leg amputation
Type: in vivo
From the text: The mammal involved is Maggie, a 12 year old, neutered female Border Collie. • 1) The IDO-producing diseases or conditions in this case are osteosarcoma (bone cancer) and chondrosarcoma (cartilage cancer). • 2) There are three parts to treatment in this model. There must be a choice or choices from Treatment Part A. There may be choice(s) from Treatment Part B and/or Part C. • A) The goal of Treatment Part A is to “turn off” IDO and/or its actions. The choice I used in this case was an antioxidant to compete with IDO for O2. • The antioxidant I used was ascorbic acid in the form of Ester-C, a licensed trademark of Zila Neutraceuticals, Inc. It is manufactured under U.S. Pat. Nos. 4,822,816 and 5,070,085. It was purchased at Sam's Club and the bottle contained 500 500 mg caplets with Rose Hips.
The doseage was bowel tolerance level which in this case was 3-4½ grams per day. • B) The goal of Treatment Part B is to build up the immune system. […] This is not, however, seen as a cure for either type of cancer she had. • Another choice was pain medication. • Yet another choice was antibiotics after the surgery to prevent infection while she healed. • My other treatment of choice was Vitamin D3. I purchased KAL brand D-400. (This stands for 400 IUs of Vitamin D3). I purchased them at several health food stores. There were 100 softgels per bottle and each softgel contained 400 IUs of D3 as well as 600 IUs of Vitamin A. They were manufactured by Nutraceutical Corp. for Makers of KAL, Inc. • Maggie's dosage most of the time was 6 softgels (2400 IUs) per day. For one week in November, she had no Vitamin D3, then after that, 10 (4000 IUs) per day for a short time, then 8 (3200 IUs) per day. • The total cost per month for Ester-C and D-400 was approximately $25.
Also, on July 12, she started taking Vitamin D3. (She started with 2 per day, and by July 14th, was taking 6 per day. She took 3 in the morning and 3 at night from then until October 30.) The hope was that the D3 could buy some time.
August 25, in addition to Vitamin D3, Maggie started taking Vitamin C (Ester-C caplets). That evening, she was given 3 caplets (one and one half grams).
The morning of August 26, she was given 4 caplets (2 grams). The goal was to find her bowel tolerance level.
Treatment resumed, this time with 9 softgels of Vitamin D3 per day and 9 caplets of Ester-C per day. That afternoon, […] developed a fever that lasted until afternoon of the next day.
A week later, she was taking 7 Ester-C and 10 D3 per day, but the D3 was dropped to 8 per day by November 21.

SMILES	overall effect of the treatment on the cancer (autopsy findings) (Ester-C plus Vitamin D3 after amputation, only microscopic cells and clusters in liver, bone tumor area being replaced)	alkaline phosphatase level (blood test) (November 3, Ester-C at bowel tolerance since August 25 in addition to Vitamin D3 (D3 stopped October 30), before treatment 3175)	alkaline phosphatase level (blood test) (November 5, Vet Emergency Hospital (different lab), Ester-C plus Vitamin D3 treatment)	lung and lower abdominal x-rays, sign of cancer (November 5, Ester-C plus Vitamin D3 treatment)	autopsy, cancer in lungs (after death December 18, Ester-C plus Vitamin D3 treatment)	alertness, behaviour (evening of August 26, one day after start of Ester-C (3 then 4 caplets) in addition to Vitamin D3)	alkaline phosphatase level (blood test) (August 15, Vitamin D3 6 softgels (2400 IUs) per day since July 12 after amputation, level before treatment 3175, normal range 5-131)	lung X-rays (August 15, on Vitamin D3 after amputation)	signs of Vitamin D3 overdose (blood test) (November 3, after 6 softgels (2400 IUs) per day July 14 to October 30)	calcium deposits in organs on x-ray (a symptom of D3 overdose) (November 5)
O=C1O[C@H]([C@@H](O)CO)C(O)=C1O [Vitamin C, ascorbic acid]	seemed to be working on the cancer	2230	1669	no sign of cancer	no cancer in her lungs	alert and awake				
C=C1CC[C@H](O)C/C1=C/C=C1\CCC[C@]2(C)[C@@H]([C@H](C)CCCC(C)C)CC[C@@H]12 [Vitamin D3]							3113	no lung cancer tumors	no signs of Vitamin D3 overdose	no calcium deposits in any organs
